# Results from patent publication US8252737B2, “Antimicrobial peptides and methods of use” (priority 2004, dated 2012).
# Like-named read-outs stand apart in the source and are kept apart here. Square brackets hold non-standard residues; d marks the D form. Peptide text beside a SMILES is read from it.
# How the values were obtained:
# gram-positive bacteria = system: gram-positive bacteria
# Procedure: Measurement of Antimicrobial Activity—Minimal inhibitory concentrations (MICs) were determined using a standard microtiter dilution method in LB (Luria-Bertani) no-salt medium (10 g of tryptone and 5 g of yeast extract per liter). Briefly, cells were grown overnight at 37° C. in LB and diluted in the same medium. […] Plates were incubated at 37° C. for 24 hours and MICs determined as the lowest peptide concentration that inhibited growth. Alternatively, minimal inhibitory concentrations were determined using a standard microtiter dilution method in a Mueller-Hinton (MH) medium. Briefly, cells were grown overnight at 37° C. in MH broth and diluted in the same medium. […] Plates were incubated at 37° C. for 24 hours and MICs determined as the lowest peptide concentration that inhibited growth. However, for MIC determination of Pseudomonas aeruginosa clinical isolates, brain heart infusion (BH1) medium was used instead of MH broth. In addition, the bacteria were diluted to a final inoculum of 1×10^6 colony-forming units/ml.
# [1] = RP-HPLC temperature profiling (hydrophobicity and self-association/dimerization parameter PA); assay type: physicochemical; settings: for tR (min) 5° C.: RP-HPLC retention time at 5° C. during temperature profiling (measure of hydrophobicity); for tR (min) 80° C.: RP-HPLC retention time at 80° C. during temperature profiling; for tR (min) Max: maximal RP-HPLC retention time during temperature profiling 5-80° C.; for PA (min) association parameter: maximal retention time difference relative to control peptide C within 5-80° C.; for ΔtR (X-NVL) (min) 5° C.: retention time difference relative to native peptide V681 (NVL) at 5° C.; for ΔtR (X-NVL) (min) 5° C. / ΔtR (X-NVL) (min) 80° C. / ΔtR (X-PSL) (min) 5° C. / ΔtR (X-PSL) (min) 80° C.: relative hydrophobicity; for ΔtR (X-NVL) (min) 80° C.: retention time difference relative to native peptide V681 (NVL) at 80° C.; for ΔtR (X-PSL) (min) 5° C. / ΔtR (X-PSL) (min) 80° C.: polar face substitutions; for ΔtR (X-PSL) (min) 5° C.: retention time difference relative to native peptide V681 (PSL) at 5° C.; for ΔtR (X-PSL) (min) 80° C.: retention time difference relative to native peptide V681 (PSL) at 80° C.
# Method in brief: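 RP-HPLC retention times recorded over temperature profiling from 5°C to 80°C, with retention relative to native V681 at each limit used as hydrophobicity. Self-association parameter PA defined as the maximal change in retention time from 5°C, after subtracting that of monomeric random-coil control peptide C.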
molecule,measurement,setting,value
Ac-KWKSFLKTFKSASKTVLHTALKAISS-NH2 [NSL],MIC (μg/ml) Gram-positive,gram-positive bacteria,7.4 µg/mL
same,tR (min) 5° C.,[1],40.72 min
same,tR (min) 80° C.,[1],37.62 min
same,decrease in hydrophobicity relative to NVL (V681),"[1]; RP-HPLC retention time difference at 80° C., non-polar face substitutions",-8.21 min
same,tR (min) Max,[1],41.08 min
same,PA (min) association parameter,[1],1.82 min
same,ΔtR (X-NVL) (min) 5° C.,[1]; non-polar face substitutions,-7.38 min
same,ΔtR (X-NVL) (min) 80° C.,[1]; non-polar face substitutions,-8.21 min
CC[C@H](C)[C@H](NC(=O)[C@H](C)NC(=O)[C@H](CCCCN)NC(=O)[C@H](CC(C)C)NC(=O)[C@H](C)NC(=O)[C@@H](NC(=O)[C@H](Cc1c[nH]cn1)NC(=O)[C@H](CC(C)C)NC(=O)[C@@H](NC(=O)[C@@H](NC(=O)[C@H](CCCCN)NC(=O)[C@@H](NC(=O)[C@H](C)NC(=O)[C@@H](CO)NC(=O)[C@H](CCCCN)NC(=O)[C@H](Cc1ccccc1)NC(=O)[C@@H](NC(=O)[C@H](CCCCN)NC(=O)[C@H](CC(C)C)NC(=O)[C@H](Cc1ccccc1)NC(=O)[C@H](CO)NC(=O)[C@H](CCCCN)NC(=O)[C@H](Cc1c[nH]c2ccccc12)NC(=O)[C@H](CCCCN)NC(C)=O)[C@@H](C)O)C(C)C)[C@@H](C)O)C(C)C)[C@@H](C)O)C(=O)N[C@@H](CO)C(=O)N[C@@H](CO)C(N)=O [PSD],geometric mean MIC against gram-positive bacteria,gram-positive bacteria; Table 8,2.3 µg/mL
same,MIC (μg/ml) Gram-positive,"gram-positive bacteria; geometric mean MIC, Table 9",2.3 µg/mL
same,fold improvement in antimicrobial activity compared to V681,"gram-positive bacteria; gram-positive bacteria, geometric mean MIC, Table 8",2.7
same,tR (min) 5° C.,[1],45.47 min
same,tR (min) 80° C.,[1],42.59 min
same,tR (min) Max,[1],46.60 min
same,PA (min) association parameter,[1],2.73 min
same,ΔtR (X-PSL) (min) 5° C.,[1],-2.63 min
same,ΔtR (X-PSL) (min) 80° C.,[1],-3.24 min
Ac-KWKSFLKTFKSALKTVLHTALKAISS-NH2 [NLL],tR (min) 5° C.,[1],48.16 min
same,tR (min) 80° C.,[1],47.02 min
same,tR (min) Max,[1],50.45 min
same,PA (min) association parameter,[1],4.22 min
same,ΔtR (X-NVL) (min) 5° C.,[1]; non-polar face substitutions,0.06 min
same,ΔtR (X-NVL) (min) 80° C.,[1]; non-polar face substitutions,1.19 min
CC[C@H](C)[C@H](NC(=O)[C@H](C)NC(=O)[C@H](CCCCN)NC(=O)[C@H](CC(C)C)NC(=O)[C@H](C)NC(=O)[C@@H](NC(=O)[C@H](Cc1c[nH]cn1)NC(=O)[C@H](CC(C)C)NC(=O)[C@@H](NC(=O)[C@@H](NC(=O)[C@H](CCCCN)NC(=O)[C@@H](NC(=O)[C@H](C)NC(=O)[C@@H](CCCCN)NC(=O)[C@H](CCCCN)NC(=O)[C@H](Cc1ccccc1)NC(=O)[C@@H](NC(=O)[C@H](CCCCN)NC(=O)[C@H](CC(C)C)NC(=O)[C@H](Cc1ccccc1)NC(=O)[C@H](CO)NC(=O)[C@H](CCCCN)NC(=O)[C@H](Cc1c[nH]c2ccccc12)NC(=O)[C@H](CCCCN)NC(C)=O)[C@@H](C)O)C(C)C)[C@@H](C)O)C(C)C)[C@@H](C)O)C(=O)N[C@@H](CO)C(=O)N[C@@H](CO)C(N)=O [PKD] (Ac-KWKSFLKTFK[dK]AVKTVLHTALKAISS-NH2),MIC (μg/ml) Gram-positive,gram-positive bacteria,2.8 µg/mL
same,tR (min) 5° C.,[1],42.20 min
same,tR (min) 80° C.,[1],39.29 min
same,tR (min) Max,[1],42.87 min
same,PA (min) association parameter,[1],2.23 min
same,ΔtR (X-PSL) (min) 5° C.,[1],-5.90 min
same,ΔtR (X-PSL) (min) 80° C.,[1],-6.54 min
Ac-KWKSFLKTFKSAGKTVLHTALKAISS-NH2 [NG],MIC (μg/ml) Gram-positive,gram-positive bacteria,7.4 µg/mL
same,tR (min) 5° C.,[1],39.96 min
same,tR (min) 80° C.,[1],36.74 min
same,tR (min) Max,[1],40.22 min
same,PA (min) association parameter,[1],1.64 min
same,ΔtR (X-NVL) (min) 5° C.,[1]; non-polar face substitutions,-8.14 min
same,ΔtR (X-NVL) (min) 80° C.,[1]; non-polar face substitutions,-9.09 min
